In brackets after ≈: the same amount, converted by molar mass.
Legend:
[1] = AUC in Sprague-Dawley rat plasma at 1 mg/kg, iv administered via bolus at LC-MS/MS analysis; format: ADME, organism-based; design: dose 1 mg/kg, route iv
[2] = Solubility of compound in FeSSIF at pH 5.8 incubated for 1 hr by LC/MS analysis; format: physicochemical
[3] = Cmax in Sprague-Dawley rat plasma at 10 mg/kg, po administered via gavage by LC-MS/MS analysis; format: ADME, organism-based; design: dose 10 mg/kg, route po
[4] = Clearance in Sprague-Dawley rat plasma at 1 mg/kg, iv administered via bolus by LC-MS/MS analysis; format: ADME, organism-based
[5] = AUC in Sprague-Dawley rat plasma at 10 mg/kg, po administered via gavage by LC-MS/MS analysis; format: ADME, organism-based; design: dose 10 mg/kg, route po
[6] = Half-life in Sprague-Dawley rat plasma at 1 mg/kg, iv administered via bolus at LC-MS/MS analysis; format: ADME, organism-based
Plasmepsin X = Plasmepsin X (Plasmodium falciparum (isolate 3D7), UniProt Q8IAS0); assay: Inhibition of Plasmodium falciparum Plasmepsin X using Dabcyl-GSMLEVENDAEG-EDANS as substrate preincubated for 30 mins followed by substrate addition and measured every 2 mins for 30 mins by FRET assay
[7] = Tmax in Sprague-Dawley rat plasma at 10 mg/kg, po administered via gavage by LC-MS/MS analysis; format: ADME, organism-based
[8] = tested on: Cathepsin D versus Plasmepsin X; assay: Selectivity ratio of IC50 for human Cathepsin D to IC50 for Plasmodium falciparum Plasmepsin X; format: toxicity; details: read-out: Ratio IC50
[9] = Volume of distribution at steady state in Sprague-Dawley rat plasma at 1 mg/kg, iv administered via bolus by LC-MS/MS analysis; format: ADME, organism-based; details: read-out: Vdss
Plasmodium falciparum = assay: Antimalarial activity against Plasmodium falciparum 3D7 by SYBR green 1 assay; format: functional, organism-based; details: for IC50: Plasmodium falciparum, 3D7
[10] = Lipophilicity, log D of the compound in octanol/phosphate buffer at pH 7.4 incubated for 90 mins by shake flask method based LC-MS analysis; format: physicochemical; details: for logD at 1.5 h: octanol/phosphate buffer, pH 7.4
Cathepsin D = Cathepsin D (Homo sapiens, UniProt P07339); assay: Inhibition of human Cathepsin D using Mca-GKPILFFRLK(Dnp)-D-R-NH2 as substrate preincubated for 30 mins followed by substrate addition and measured after 60 mins by FRET assay; format: toxicity
[11] = Apparent oral bioavailability in Sprague-Dawley rat plasma at 10 mg/kg administered via gavage by LC-MS/MS analysis; format: ADME, organism-based; details: read-out: Fapp
[12] = Intrinsic clearance in human hepatocytes assessed per 10^6 cells at 0.5 uM measured after 120 min by HRMS method; format: ADME, cell-based, Hepatocyte; details: read-out: CLH
[13] = Drug metabolism in human hepatocytes assessed as (S)-4-(2,3'-dichloro-[1,1'-biphenyl]-3-yl)-4-methyltetrahydropyrimidin-2(1H)-imine formation at 2 uM measured after 120 mins by UHPLC-MS analysis; format: ADME, cell-based, Hepatocyte; details: 2 h
[14] = Drug metabolism in human hepatocytes at 2 uM measured after 120 mins by UHPLC-MS analysis; format: ADME, cell-based, Hepatocyte; details: 2 h
[15] = Drug level treated with (S)-6-(2,3'-dichloro-[1,1'-biphenyl]-3-yl)-2-imino-6-methyl-3-((2S,4S)-2-methyltetrahydro-2H-pyran-4-yl)tetrahydropyrimidin-4(1H)-one in human hepatocytes at 2 uM measured after 120 mins by UHPLC-MS analysis; format: ADME, cell-based, Hepatocyte

Cathepsin D, sequence (P07339 65-162 limits assumed): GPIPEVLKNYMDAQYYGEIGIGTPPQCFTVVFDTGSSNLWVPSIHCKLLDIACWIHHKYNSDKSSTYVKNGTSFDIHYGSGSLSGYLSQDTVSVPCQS
Cathepsin D, sequence (P07339 169-412 limits assumed): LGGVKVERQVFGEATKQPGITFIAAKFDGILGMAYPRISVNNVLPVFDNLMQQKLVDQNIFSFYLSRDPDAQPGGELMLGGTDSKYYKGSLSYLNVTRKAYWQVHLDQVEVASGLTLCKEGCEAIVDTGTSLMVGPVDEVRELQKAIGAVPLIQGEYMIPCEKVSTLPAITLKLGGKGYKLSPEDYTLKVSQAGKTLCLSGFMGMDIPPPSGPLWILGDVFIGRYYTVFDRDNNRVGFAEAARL
Plasmepsin X, sequence (Q8IAS0 whole entry): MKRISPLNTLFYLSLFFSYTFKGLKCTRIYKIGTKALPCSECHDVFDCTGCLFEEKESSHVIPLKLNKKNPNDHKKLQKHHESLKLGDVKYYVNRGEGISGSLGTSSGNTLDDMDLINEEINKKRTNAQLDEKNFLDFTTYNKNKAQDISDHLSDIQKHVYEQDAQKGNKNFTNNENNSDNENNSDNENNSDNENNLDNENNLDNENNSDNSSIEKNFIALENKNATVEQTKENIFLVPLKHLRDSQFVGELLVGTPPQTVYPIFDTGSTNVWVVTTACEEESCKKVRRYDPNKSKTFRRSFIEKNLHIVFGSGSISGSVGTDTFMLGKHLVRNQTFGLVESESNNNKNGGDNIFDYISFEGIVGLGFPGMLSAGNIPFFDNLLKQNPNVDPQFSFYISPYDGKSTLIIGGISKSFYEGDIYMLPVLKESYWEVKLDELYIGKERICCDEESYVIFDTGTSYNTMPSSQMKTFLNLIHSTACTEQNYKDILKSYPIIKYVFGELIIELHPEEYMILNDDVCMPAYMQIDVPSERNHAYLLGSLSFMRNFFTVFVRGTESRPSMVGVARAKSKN

SMILES	AUC [1]	solubility at 1 h [2]	Cmax [3]	clearance [4]	AUC [5]	half-life [6]	IC50 (Plasmepsin X)	Tmax [7]	Vd [9]	IC50 (Plasmodium falciparum)	logD at 1.5 h [10]	hepatocyte CLint at 0.5 µM [12]	Drug metabolism [13]	Drug metabolism [14]	Drug uptake [15]	logD ([10]; octanol/water, pH 7.4, 1.5 h, BLD = below limit of detection)	selectivity ratio [8]	FIC50 (Plasmodium falciparum)	IC50 (Cathepsin D)	bioavailability [11]
CN(C)[C@H]1C[C@@H](N2C(=N)N[C@](C)(c3cccc(-c4ccc(F)cc4F)c3Cl)CC2=O)C1	–	> 1500 µM	–	–	–	–	2260 nM	–	–	657 nM	1.5	16 µL/min/1e6 cells	–	–	–	–	12.5	251.5 nM	28300 nM	–
C[C@H]1C[C@@H](N2C(=N)N[C@](C)(c3cccc(NC(=O)c4cccc(C#N)c4)c3Cl)CC2=O)CCO1	–	1020 µM (≈ 490 µg/mL)	–	–	–	–	7.6 nM	–	–	8.3 nM	1.3	4 µL/min/1e6 cells	–	–	–	–	555	7.7 nM	–	18%
C[C@H]1C[C@@H](N2C(=N)N[C@](C)(c3cccc(-c4ccc(C5CC5)nc4)c3Cl)CC2=O)CCS1(=O)=O	–	–	–	–	–	–	12.8 nM	–	–	87.5 nM	2	< 3 µL/min/1e6 cells	–	–	–	–	206	27.1 nM	2680 nM	–
C[C@@]1(c2cccc(-c3ccc(F)cc3F)c2Cl)CC(=O)N([C@H]2CCC(F)(F)[C@@H](O)C2)C(=N)N1	–	–	–	–	–	–	23.3 nM	–	–	280 nM	2.4	4.7 µL/min/1e6 cells	–	–	–	–	17	32.5 nM	396 nM	–
C[C@@]1(c2cccc(-c3cccc(Cl)c3)c2Cl)CCNC(=N)N1	–	–	–	–	–	–	–	–	–	–	–	–	–	–	Active	–	–	–	–	–
C[C@@]1(c2cccc(-c3cccc(Cl)c3)c2Cl)CC(=O)N([C@H]2CCOC[C@@H]2O)C(=N)N1	–	1390 µM (≈ 624 µg/mL)	–	–	–	–	56.5 nM	–	–	323 nM	2.4	8.2 µL/min/1e6 cells	–	–	–	–	3.9	135.6 nM	226 nM	–
C[C@H]1C[C@@H](N2C(=N)N[C@](C)(c3cccc(-c4ccc(OC(F)F)nc4)c3Cl)CC2=O)CCS1(=O)=O	–	1030 µM (≈ 543 µg/mL)	–	–	–	–	10.8 nM	–	–	84.9 nM	2.1	< 3 µL/min/1e6 cells	–	–	–	–	53.9	23.4 nM	593 nM	–
C[C@@H]1C[C@H](N2C(=N)N[C@](C)(c3cccc(-c4cccc(Cl)c4)c3Cl)CC2=O)CC[C@@H]1O	–	> 1500 µM	–	–	–	–	9.9 nM	–	–	246 nM	3.5	25 µL/min/1e6 cells	–	–	–	–	4.7	40.9 nM	47.3 nM	–

Second part, led by results:

AUC [1]	solubility at 1 h [2]	Cmax [3]	clearance [4]	AUC [5]	half-life [6]	IC50 (Plasmepsin X)	Tmax [7]	Vd [9]	IC50 (Plasmodium falciparum)	logD at 1.5 h [10]	hepatocyte CLint at 0.5 µM [12]	Drug metabolism [13]	Drug metabolism [14]	Drug uptake [15]	logD ([10]; octanol/water, pH 7.4, 1.5 h, BLD = below limit of detection)	SMILES	selectivity ratio [8]	FIC50 (Plasmodium falciparum)	IC50 (Cathepsin D)	bioavailability [11]
1.6 µM·h	697 µM (≈ 380 µg/mL)	423 nM	20 mL/min/kg	4.68 µM·h	9.2 h	11.2 nM	4 h	13.1 L/kg	107 nM	2.4	< 3 µL/min/1e6 cells	–	–	–	–	C[C@H]1C[C@@H](N2C(=N)N[C@](C)(c3cccc(-c4ccc(OC(F)(F)F)nc4)c3Cl)CC2=O)CCS1(=O)=O	140	27.9 nM	1540 nM	29%
–	664 µM (≈ 296 µg/mL)	–	–	–	–	7.7 nM	–	–	92.3 nM	3.7	26 µL/min/1e6 cells	Metabolite_Detected	Metabolite_Detected	–	–	C[C@H]1C[C@@H](N2C(=N)N[C@](C)(c3cccc(-c4cccc(Cl)c4)c3Cl)CC2=O)CCO1	1.3	16.2 nM	10.8 nM	–
–	> 1500 µM	–	–	–	–	8.8 nM	–	–	21.6 nM	2.5	75 µL/min/1e6 cells	–	–	–	–	C[C@H]1C[C@@H](N2C(=N)N[C@](C)(c3cccc(-c4cncc(Cl)c4)c3Cl)CC2=O)CCO1	3.5	15.2 nM	32.3 nM	–
–	1010 µM (≈ 451 µg/mL)	–	–	–	–	9.4 nM	–	–	95 nM	2.9	18 µL/min/1e6 cells	–	–	–	–	C[C@H]1C[C@@H](N2C(=N)N[C@](C)(c3cccc(-c4ccc(F)cc4F)c3Cl)CC2=O)CCO1	71	21.3 nM	644 nM	–
–	378 µM (≈ 202 µg/mL)	–	–	–	–	11.2 nM	–	–	26.1 nM	2.5	46 µL/min/1e6 cells	–	–	–	–	C[C@H]1C[C@@H](N2C(=N)N[C@](C)(c3cccc(-c4ccc5ncn(CC(F)(F)F)c5c4)c3Cl)CC2=O)CCO1	0.3	12.4 nM	3.9 nM	–
–	> 1500 µM	–	–	–	–	22.4 nM	–	–	137 nM	1.2	18 µL/min/1e6 cells	–	–	–	–	C[C@H]1C[C@@H](N2C(=N)N[C@](C)(c3cccc(-c4cnn5cccnc45)c3Cl)CC2=O)CCO1	59	131.3 nM	1300 nM	–
–	1130 µM (≈ 558 µg/mL)	–	–	–	–	10.2 nM	–	–	74.1 nM	2.4	3.3 µL/min/1e6 cells	–	–	–	–	C[C@H]1C[C@@H](N2C(=N)N[C@](C)(c3cccc(-c4ccc(F)cc4F)c3Cl)CC2=O)CCS1(=O)=O	36.5	16.7 nM	366 nM	–
–	> 1500 µM	–	–	–	–	263 nM	–	–	93.5 nM	1.8	8.2 µL/min/1e6 cells	–	–	–	–	C[C@H]1C[C@@H](N2C(=N)N[C@](C)(c3cccc(-c4ccc(F)cc4F)c3Cl)CC2=O)CCN1C	14.5	37.4 nM	3820 nM	–
–	562 µM (≈ 251 µg/mL)	–	–	–	–	10.9 nM	–	–	105 nM	3	29 µL/min/1e6 cells	–	–	–	–	C[C@H]1C[C@@H](N2C(=N)N[C@](C)(c3cccc(-c4ccccc4Cl)c3Cl)CC2=O)CCO1	204	28.4 nM	2240 nM	–
–	69 µM (≈ 33.2 µg/mL)	–	–	–	–	5.2 nM	–	–	66.2 nM	3.4	5.7 µL/min/1e6 cells	–	–	–	–	C[C@H]1C[C@@H](N2C(=N)N[C@](C)(c3cccc(-c4ccc(Cl)cc4Cl)c3Cl)CC2=O)CCO1	154	3.5 nM	771 nM	–
–	833 µM (≈ 442 µg/mL)	–	–	–	–	9.5 nM	–	–	78.1 nM	–	< 3 µL/min/1e6 cells	–	–	–	Bld	C[C@H]1C[C@@H](N2C(=N)N[C@](C)(c3cccc(-c4ccc(OC(F)(F)F)cc4Cl)c3Cl)CC2=O)CCO1	176	0.8 nM	1590 nM	–

Reference: ChEMBL document CHEMBL5370686, “Design of Novel Series of Antimalarial PMX Inhibitors with Increased Half-Life via Molecular Property Optimization” (ACS Med Chem Lett, 2023)
